What was measured:
[1] = pH 5
[2] = tested on: MV4-11; experiment: Caspase 8/FLICE activity colorimetric assay; type: cell-based, human; conditions: compounds at 1 μM, 24, 48 and 72 hours
Protocol: (§1) Next, tests were performed to see if caspase 8 activation alone is sufficient to mediate IL-1β induction. […] To ensure caspase 8 activity was captured at an appropriate time frame, caspase 8 activation levels at 24, 48 and 72 hours were measured (FIGS. 3C and 3D) using a caspase 8/FLICE activity colorimetric assay.

[3] = tested on: ML-2; experiment: Caspase 8/FLICE activity colorimetric assay; type: cell-based, human; conditions: compounds at 1 μM, 24, 48 and 72 hours
Protocol: as §1

[4] = tested on: bone marrow mononuclear cells (BMMC) from primary AML patients; experiment: Secreted IL-1β in primary bone marrow mononuclear cells ex vivo; type: cell-based, human
Protocol: For cytokine assays on primary AML and healthy bone marrow cells, cells were seeded at 0.2 million in 150 μL media per well of ultra-low attachment 96-well plate in duplicates. Cell culture media was collected 24 and 48 hours post-treatment with Compound 1 and/or LPS. Cells were pelleted, fixed in 1.6% PFA and froze down for flow cytometry analysis.
(§2) Normal PBMCs were purchased from AllCells (Cat No. PB006F). Primary AML BMMC in were purchased from Conversant (SKU ID: BBM1000-E1110036458110215SH) or Fidelis Research (AML55, AML57, AML73, AML74, AML76, AML79, AML80, AML81, AML84, AML95). Bone marrow from health donor was purchased from StemCell Technologies (Cat No. 70001.2).
Normal PBMCs were cultured in RPMI-1640 (ATCC Cat No. 30-2001) containing 20% fetal bovine serum (Corning Cat No. 35-010-CV). […]
IL-1α (Meso Scale Disgnostics, Cat No. K151RBD), IL-1β (Meso Scale Disgnostics, Cat No. K151QPD), IL-1RA (Meso Scale Disgnostics, Cat No. K151WTD), IL-18 (Meso Scale Disgnostics, Cat No. K151VJK), TNFa (Meso Scale Disgnostics, Cat No. K151QWD), VEGF Meso Scale Disgnostics, Cat No. K151RHD) levels were measured by (Meso Scale Disgnostics assay kits following manufacturer's instructions. Measurements were made on a MESO™ SECTOR S 600 plate reader (Meso Scale Disgnostics). […]

[5] = tested on: Normal Peripheral Blood Mononuclear Cells; experiment: Cytokine induction, electrochemiluminescence assay of culture supernatant; type: cell-based, human; conditions: PBMC
Protocol: as §2
Normal PBMCs were cultured in RPMI-1640 (ATCC Cat No. 30-2001) containing 20% fetal bovine serum (Corning Cat No. 35-010-CV). Primary AML and bone marrows were cultured in Complete Medium Cytokines 1X: StemSpam™ Serum-Free Expansion Medium (StemCell Technologies Cat No. 09650) supplemented with 50 ng/mL Stem Cell Factor (Peprotech Cat No. 300-07), 50 ng/mL recombinant Human FLT3-Ligand (Peprotech Cat No. 300-19), 20 ng/mL recombinant human-interleukin-3 (Peprotech Cat No. 200-03), […] recombinant human-interleukin-6 (Peprotech Cat No. 200-06), 1 μM StemRegenin (StemCell Technologies Cat No. 72342), penicillin/streptomycin (Invitrogen Cat No. 15140122).
IL-1α (Meso Scale Disgnostics, Cat No. K151RBD), IL-1β (Meso Scale Disgnostics, Cat No. K151QPD), IL-1RA (Meso Scale Disgnostics, Cat No. K151WTD), IL-18 (Meso Scale Disgnostics, Cat No. K151VJK), TNFa (Meso Scale Disgnostics, Cat No. K151QWD), VEGF Meso Scale Disgnostics, Cat No. K151RHD) levels were measured by (Meso Scale Disgnostics assay kits following manufacturer's instructions. Measurements were made on a MESO™ SECTOR S 600 plate reader (Meso Scale Disgnostics).
Cell proliferation (CTG) and caspase 3/7 activation (IncuCyte) were analyzed using GraphPad Prism. Electrochemiluminescence data was analyzed using MSD Discovery Workbench platform.
The level of intracellular pro IL-1β and released IL-1β in eight AML cell lines and normal PBMC treated with a titration of Compound 1 over a 48 hour period was assessed. (see FIGS. 1A-1C, Table 2). Supernatant IL-1βb level was induced over 5 fold in 6 out of 8 AML cell lines and normal PBMC upon Compound 1 treatment compared to DMSO (FIGS. 1A, 1B, and 1C, Table 2).

[6] = tested on: isogenic MV4-11 Cas9 cell pair (GCN2); experiment: Isogenic cell pair, wildtype GCN2 vs GCN2 deleted; type: cell-based, human
Description: ISR, especially via GCN2 pathway, is one of the key pathways contributed to GSPT1 mediated cell death. GCN2 knock down blocked ATF4 and CHOP induction by Compound 1, and suppressed caspase 3 and caspase 8 activation. GCN2 has been implicated in IL-1β production. GCN2 activation inhibit classical caspase 1 mediated inflammasome activation in intestinal cells and that GCN2 knock down in CD11c+ antigen presenting cells or intestinal epithelial cells leads to enhanced inflammasome activation and IL-1β production. (Ravindran et al. Nature. 2016, 531(7595):523-527). To understand if Compound 1 mediated IL-1β induction is downstream of GCN2 pathway, an isogenic MV4-11 Cas9 cell pair either expressing endogenous wildtype GCN2 or with the gene deleted was used. GCN2 knock down suppressed the induction of phosphor-eIF2a, ATF4, CHOP and cleaved caspase 8 by Compound 1 (FIG. 9A). […] These evidences pointed that pro-[…] up-regulation and secreted IL-1β induction are both downstream effects of GCN2 pathway activation, and distinct from the GCN2 mediated classical inflammasome pathway inhibition reported in gut cells (Ravindran et al. Nature. 2016, 531(7595):523-527).

## O=C1CCC(N2Cc3cc(CNC(=O)C(F)(F)c4ccc(Cl)cc4)ccc3C2=O)C(=O)N1 (stereo not shown) [Compound 1, 2-(4-chlorophenyl)-N-((2-(2,6-dioxopiperidin-3-yl)-1-oxoisoindolin-5-yl)methyl)-2,2-difluoroacetamide]
[1]
  Solution Stability: DS is not stable in solution at pH of 5.0 or above.
[2]
  Caspase 8 activation level: not the most efficient caspase 8 activating compound across all time points tested
[3]
  Caspase 8 activation level: not the most efficient caspase 8 activating compound across all time points tested
[4]; four M0/M1/M2 samples
  IL-1β in cell culture supernatant, FAB M0/M1/M2 AML BMMC: not able to induce IL-1β
[4]; two out of five M4/M5 samples, 24 and 48 hours post treatment
  IL-1β in cell culture supernatant, FAB M4/M5 AML BMMC: marked induction of IL-1β
[5]
  IL-1β induction: 1.88
  IL-18 induction: 0.90
[6]; GCN2 knock down
  Induction of phosphor-eIF2a, ATF4, CHOP and cleaved caspase 8: suppressed
[6]; GCN2 knock out cells compared to parental cells
  Intracellular and supernatant IL-1β induction: markedly suppressed
[6]; absence of GCN2
  Pro-IL-1β upregulation: abolished

Source: patent US12090147B2, “Combination therapy with 2-(4-chlorophenyl)-N-((2-(2,6-dioxopiperidin-3-yl)-1-oxoisoindolin-5-yl)methyl)-2,2-difluoroacetamide” (Celgene Corporation, priority 2019, dated 2024)
